From ChEMBL document CHEMBL1201862, “PubChem BioAssay data set” (2004)
Active and inactive are the calls of the source.

How the values were obtained:
H9c2 = experiment: cells; assay type: functional, cell-based; conditions: Rattus norvegicus, H9c2, Myocardium;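 also: confirmatory concentration-response retest of ultra-high-throughput screening hits for modulation of myocardial damage; cell death induced by hydrogen peroxide oxidative stress; compound pretreatment for 60 min then peroxide exposure for 2 h; potency is for protecting the cells against peroxide damage rather than for killing them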
[1] = biological target: T1, Corticotropin-releasing factor receptor 2/Corticotropin-releasing factor-binding protein (Homo sapiens, UniProt P24387+Q13324); experiment: Dose Response confirmation of uHTS hits for small molecule antagonists of the CRF-binding protein and CRF-R2 receptor complex.; assay type: functional; conditions: read-out: IC50_Mean
T1 sequence (Q13324 whole entry): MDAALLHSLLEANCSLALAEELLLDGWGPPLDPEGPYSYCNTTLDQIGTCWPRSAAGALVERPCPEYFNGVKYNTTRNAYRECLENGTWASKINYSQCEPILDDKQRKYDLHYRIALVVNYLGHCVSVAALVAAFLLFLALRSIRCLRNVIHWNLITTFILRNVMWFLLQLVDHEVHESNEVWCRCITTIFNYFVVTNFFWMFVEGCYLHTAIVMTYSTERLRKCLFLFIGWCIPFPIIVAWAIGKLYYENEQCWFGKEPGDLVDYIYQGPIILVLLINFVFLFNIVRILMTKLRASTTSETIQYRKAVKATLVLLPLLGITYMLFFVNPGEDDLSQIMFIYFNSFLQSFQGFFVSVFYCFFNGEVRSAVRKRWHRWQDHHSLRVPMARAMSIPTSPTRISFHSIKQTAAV
T1 sequence (P24387 whole entry): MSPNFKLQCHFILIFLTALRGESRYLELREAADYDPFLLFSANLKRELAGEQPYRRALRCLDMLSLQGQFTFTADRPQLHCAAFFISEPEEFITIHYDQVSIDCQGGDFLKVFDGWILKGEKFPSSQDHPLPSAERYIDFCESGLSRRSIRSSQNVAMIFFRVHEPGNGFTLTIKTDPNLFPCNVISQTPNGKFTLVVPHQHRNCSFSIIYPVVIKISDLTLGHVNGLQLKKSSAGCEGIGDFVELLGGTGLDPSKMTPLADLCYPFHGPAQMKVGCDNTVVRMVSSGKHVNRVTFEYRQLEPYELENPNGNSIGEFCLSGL

[2] = biological target: T1, Corticotropin-releasing factor receptor 2/Corticotropin-releasing factor-binding protein; experiment: activators of CRF receptor 2 with binding protein – uHTS hits, confirmation (AID 602473); assay type: functional; conditions: read-out: EC50_Mean
[3] = biological target: T2, Short transient receptor potential channel 4 (Mus musculus, UniProt Q9QUQ5); experiment: mouse TRPC4 channel inhibitors, dose response, cell-based, HEK293 TRPC4/mu-opioid, Fluo-4 calcium (AID 434942); assay type: functional;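 also: potency of inhibitors blocking the TRPC4 calcium response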
T2 sequence (Q9QUQ5 whole entry): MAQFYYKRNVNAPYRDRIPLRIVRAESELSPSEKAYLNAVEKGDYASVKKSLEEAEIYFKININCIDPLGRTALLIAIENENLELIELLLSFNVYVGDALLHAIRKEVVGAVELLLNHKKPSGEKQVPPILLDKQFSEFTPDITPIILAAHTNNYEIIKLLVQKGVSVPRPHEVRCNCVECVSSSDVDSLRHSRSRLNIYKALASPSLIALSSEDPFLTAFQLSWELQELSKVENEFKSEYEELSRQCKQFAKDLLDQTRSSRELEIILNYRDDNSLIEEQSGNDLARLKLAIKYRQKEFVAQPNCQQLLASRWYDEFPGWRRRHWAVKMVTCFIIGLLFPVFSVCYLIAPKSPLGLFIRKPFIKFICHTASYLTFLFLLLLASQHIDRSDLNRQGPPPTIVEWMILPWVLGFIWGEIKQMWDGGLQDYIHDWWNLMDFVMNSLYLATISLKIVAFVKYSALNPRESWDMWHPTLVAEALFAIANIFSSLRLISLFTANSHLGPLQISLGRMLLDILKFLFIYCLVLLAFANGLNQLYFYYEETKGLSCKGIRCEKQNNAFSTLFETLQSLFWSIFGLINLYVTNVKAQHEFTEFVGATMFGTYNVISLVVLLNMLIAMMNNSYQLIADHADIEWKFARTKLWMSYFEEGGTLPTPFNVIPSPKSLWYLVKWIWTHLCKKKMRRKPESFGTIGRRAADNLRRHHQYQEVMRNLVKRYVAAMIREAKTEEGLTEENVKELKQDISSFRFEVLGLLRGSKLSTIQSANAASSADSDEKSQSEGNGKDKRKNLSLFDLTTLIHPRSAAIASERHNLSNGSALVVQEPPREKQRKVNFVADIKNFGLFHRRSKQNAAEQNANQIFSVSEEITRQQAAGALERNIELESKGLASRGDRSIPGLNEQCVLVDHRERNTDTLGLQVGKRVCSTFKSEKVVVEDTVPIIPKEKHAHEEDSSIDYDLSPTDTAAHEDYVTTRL

[4] = Luminescence Cell-Based Dose Confirmation HTS to Identify Inhibitors of Platelet Dense Granule Release. [Related pubchem assays: 1663 (Primary HTS), 1678 (Summary of Project)]; assay type: functional
[5] = biological target: Luciferin 4-monooxygenase (Photinus pyralis, UniProt P08659); experiment: firefly luciferase enzyme inhibitors, dose response, biochemical, luminescence (AID 1891)
Sequence of Luciferin 4-monooxygenase (P08659 whole entry): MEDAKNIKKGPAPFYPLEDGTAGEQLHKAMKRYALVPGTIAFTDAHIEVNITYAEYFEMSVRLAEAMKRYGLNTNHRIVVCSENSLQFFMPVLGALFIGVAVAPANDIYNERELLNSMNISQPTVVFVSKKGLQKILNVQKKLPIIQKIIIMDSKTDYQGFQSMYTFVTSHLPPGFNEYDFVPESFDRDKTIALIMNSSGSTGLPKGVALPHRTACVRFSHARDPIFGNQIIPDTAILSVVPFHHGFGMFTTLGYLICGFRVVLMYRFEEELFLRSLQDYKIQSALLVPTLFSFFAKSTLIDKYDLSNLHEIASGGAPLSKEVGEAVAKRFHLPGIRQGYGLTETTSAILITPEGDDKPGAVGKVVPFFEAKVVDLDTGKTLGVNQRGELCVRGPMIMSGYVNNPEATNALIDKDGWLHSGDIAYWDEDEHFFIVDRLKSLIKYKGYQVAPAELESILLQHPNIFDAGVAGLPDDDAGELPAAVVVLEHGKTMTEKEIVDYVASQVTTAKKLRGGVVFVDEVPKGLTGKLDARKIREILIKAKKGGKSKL

Large T antigen = Large T antigen (Simian virus 40, UniProt P03070); assay type: functional, Betapolyomavirus macacae;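 also: Confirmatory-stage PubChem screen for compounds that inhibit SV40 T antigen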
Sequence of Large T antigen (P03070 whole entry): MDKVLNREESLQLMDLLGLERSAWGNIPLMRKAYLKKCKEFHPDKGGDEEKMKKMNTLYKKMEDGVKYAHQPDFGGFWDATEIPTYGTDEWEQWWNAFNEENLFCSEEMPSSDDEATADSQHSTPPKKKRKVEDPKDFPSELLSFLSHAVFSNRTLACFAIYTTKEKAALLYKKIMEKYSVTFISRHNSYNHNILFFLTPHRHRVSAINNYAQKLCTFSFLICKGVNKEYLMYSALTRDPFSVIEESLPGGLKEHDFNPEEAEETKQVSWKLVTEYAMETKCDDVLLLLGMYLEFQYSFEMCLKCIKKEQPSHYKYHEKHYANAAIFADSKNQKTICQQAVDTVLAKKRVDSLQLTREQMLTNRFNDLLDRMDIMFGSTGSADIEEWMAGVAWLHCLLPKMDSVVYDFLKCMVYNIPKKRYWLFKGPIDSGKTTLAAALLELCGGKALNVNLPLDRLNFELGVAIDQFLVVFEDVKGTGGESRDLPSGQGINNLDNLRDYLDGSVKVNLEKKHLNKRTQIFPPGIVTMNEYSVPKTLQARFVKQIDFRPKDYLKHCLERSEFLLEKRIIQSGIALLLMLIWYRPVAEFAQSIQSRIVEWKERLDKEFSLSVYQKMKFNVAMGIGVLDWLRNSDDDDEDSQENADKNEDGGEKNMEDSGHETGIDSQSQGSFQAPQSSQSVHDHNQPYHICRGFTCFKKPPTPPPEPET

[6] = microbe, parasite or virus in culture; assay type: functional; conditions: Mycobacterium tuberculosis
[7] = biological target: T3, Zinc finger protein mex-5 (Caenorhabditis elegans, UniProt Q9XUB2); experiment: MEX-5/TCR-2 RNA interaction inhibitors, dose response, biochemical, C. elegans, fluorescence polarization (AID 1960)
T3 sequence (Q9XUB2 whole entry): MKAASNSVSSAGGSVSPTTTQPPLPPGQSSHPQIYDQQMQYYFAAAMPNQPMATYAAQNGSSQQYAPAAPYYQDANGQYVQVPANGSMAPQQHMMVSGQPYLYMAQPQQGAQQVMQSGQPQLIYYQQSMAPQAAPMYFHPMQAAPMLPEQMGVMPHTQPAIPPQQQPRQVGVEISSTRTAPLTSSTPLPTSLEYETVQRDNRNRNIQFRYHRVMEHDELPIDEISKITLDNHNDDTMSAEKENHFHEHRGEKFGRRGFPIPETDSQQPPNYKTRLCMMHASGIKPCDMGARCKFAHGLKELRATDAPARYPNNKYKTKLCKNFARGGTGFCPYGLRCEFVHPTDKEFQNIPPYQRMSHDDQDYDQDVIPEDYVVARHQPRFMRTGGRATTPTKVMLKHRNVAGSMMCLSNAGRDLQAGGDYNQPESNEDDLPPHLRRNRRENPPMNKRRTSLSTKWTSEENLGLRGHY

[8] = biological target: T4, RNA-binding protein pos-1 (Caenorhabditis elegans, UniProt G5EF15); experiment: inhibitors of POS-1/mex-3 RNA binding, dose response, biochemical, fluorescence polarization (AID 1964);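 also: purified POS-1 fused to maltose binding protein made in E. coli; potency of compounds blocking POS-1 binding to fluorescent RNA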
T4 sequence (G5EF15 whole entry): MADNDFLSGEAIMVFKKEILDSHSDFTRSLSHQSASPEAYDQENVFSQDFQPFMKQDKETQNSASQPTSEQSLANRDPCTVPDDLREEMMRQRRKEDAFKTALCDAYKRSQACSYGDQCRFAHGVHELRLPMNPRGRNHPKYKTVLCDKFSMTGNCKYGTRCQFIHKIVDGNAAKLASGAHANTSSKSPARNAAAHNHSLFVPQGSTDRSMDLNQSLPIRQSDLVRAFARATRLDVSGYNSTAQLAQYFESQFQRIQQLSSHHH

[9] = control 3'UTR Renilla luciferase suppression, dose response, counter-screen for Shn3 inhibitor project, cell-based, Clone20-Shn3RL, cherry-picked (AID 624133); assay type: functional
[10] = Shn3 3'UTR reporter inhibitors, dose response, cell-based, Clone20 osteoblasts, firefly luciferase, cherry-picked (AID 624132); assay type: functional;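 also: firefly luciferase luminescence from reporter carrying the Shn3 3'UTR in osteoblasts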
[11] = HepG2 cell cytotoxicity, dose response, cytotoxicity control for Shn3 inhibitor project, CellTiter-Glo, cherry-picked (AID 624134); assay type: functional, cell-based
Paired box protein Pax-8 = Paired box protein Pax-8 (Homo sapiens, UniProt Q06710); experiment: inhibitors of PAX8-driven TPO luciferase reporter, dose response, RMG-I cells, cherry-pick (AID 687027); assay type: functional, cell-based;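 also: luciferase reporter driven by Pax8 target thyroperoxidase promoter measured by SteadyGlo luminescence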
Sequence of Paired box protein Pax-8 (Q06710 whole entry, the tested form may be a part): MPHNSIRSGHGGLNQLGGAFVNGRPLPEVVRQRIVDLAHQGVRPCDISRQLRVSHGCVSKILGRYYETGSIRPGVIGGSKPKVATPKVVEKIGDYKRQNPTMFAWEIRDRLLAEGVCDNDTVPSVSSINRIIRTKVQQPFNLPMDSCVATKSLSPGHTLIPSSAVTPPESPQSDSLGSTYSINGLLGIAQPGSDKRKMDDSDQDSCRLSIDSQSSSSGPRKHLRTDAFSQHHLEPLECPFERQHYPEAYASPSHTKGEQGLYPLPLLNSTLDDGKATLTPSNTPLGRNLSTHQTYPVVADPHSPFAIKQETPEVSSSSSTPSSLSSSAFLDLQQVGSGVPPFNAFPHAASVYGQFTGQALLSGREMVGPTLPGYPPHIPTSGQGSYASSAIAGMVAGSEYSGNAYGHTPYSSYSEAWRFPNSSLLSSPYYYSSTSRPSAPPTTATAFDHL

[12] = inhibitors of HIV Env-driven cell fusion, dose response, cherry-pick (AID 652057); assay type: functional, cell-based

SMILES: CC(C)(C)NC(=O)c1cccc(NC(=O)c2ccc(NC(=O)c3ccco3)cc2)c1
- IC50 (H9c2): > 79 µM (inactive)

SMILES: COc1ccc(SCC(=O)Nc2ccccc2Cl)cc1
- IC50 [1]: > 47.1 µM (inactive)
- EC50 [2]: > 53 µM (inactive)

SMILES: CCCN1CN(Cc2ccco2)c2nc3ccccc3n2C1
- EC50 [3]: 1.88 µM (active)

SMILES: COc1cccc(C(=O)NCc2nnc(SCC(=O)Nc3nccs3)n2-c2ccccc2)c1
- EC50 [4]: > 112 µM (not active)
- EC50 [5]: > 112 µM (not active)

SMILES: CN(C)c1ccc(NC(=O)CN2C3CCCC2CC(NC(=O)c2ccccc2)C3)cc1 (stereo not drawn)
- EC50 [3]: 3.35 µM (active)
- IC50 (Large T antigen): 7.46 µM (active)

SMILES: Cc1ccc(-c2nnc(SCC(=O)N3CCN(c4ccccc4)CC3)o2)cc1
- IC50 [1]: > 47.1 µM (inactive)
- EC50 [2]: > 53 µM (inactive)

SMILES: CCN(Cc1ccccc1)C(=O)c1cc2c(=O)oc3ccc(C)cc3c2s1
- IC50 (H9c2): > 79 µM (inactive)

SMILES: COc1cc(OC)c(C2N(C)c3ccccc3N2C)cc1OC
- EC50 [3]: 1.33 µM (active)

SMILES: CN(C(=S)NC(=O)c1ccc(Cl)cc1)C1CCCCC1
- CC50 [6]: > 40 µM (active)

SMILES: CC(=O)c1c(S)nc(-c2ccccc2)nc1N1CCN(C)CC1
- EC50 [4]: > 112 µM (not active)
- EC50 [5]: > 112 µM (not active)

SMILES: O=C1N=C(N2CCOCC2)S/C1=C\c1ccc(-c2ccccc2Cl)o1
- EC50 [7]: > 300 µM (not active)
- EC50 [8]: > 300 µM (not active)

SMILES: COc1ccccc1CN1CCCC(C(=O)N(C)Cc2ccccc2)C1 (stereo not drawn)
- IC50 [1]: > 47.1 µM (inactive)
- EC50 [2]: > 53 µM (inactive)

SMILES: CC(C)CC(C(=O)Nn1cnnc1)N1C(=O)c2ccccc2C1=O (stereo not drawn)
- IC50 [1]: > 47.1 µM (inactive)
- EC50 [2]: > 53 µM (inactive)

SMILES: COc1ccc(-c2nc(NC(=O)Cn3ccc(C(F)(F)F)n3)sc2C)cc1
- CC50 [6]: > 40 µM (active)

SMILES: O=C(COc1ccccc1[N+](=O)[O-])Nc1ccc(N2CCN(C(=O)c3cccs3)CC2)cc1
- IC50 (H9c2): > 79 µM (inactive)

SMILES: O=C(NCCCN1CCOCC1)c1ccccc1
- EC50 [4]: > 112 µM (not active)
- EC50 [5]: > 112 µM (not active)

SMILES: CCN1C(=O)C(=Cc2ccc(N3CCOCC3)o2)C(=O)N(CC)C1=S
- EC50 [7]: > 300 µM (inconclusive)
- EC50 [8]: > 300 µM (not active)

SMILES: COc1ccc(S(=O)(=O)NNC(=O)C(=O)NNc2ccccn2)cc1
- EC50 [8]: > 300 µM (not active)

SMILES: Cc1cccc(OCC(=O)N2CCN(C(=O)c3cccs3)CC2)c1
- EC50 [4]: > 112 µM (not active)
- EC50 [5]: > 112 µM (not active)

SMILES: Cc1ccc(N(CCC#N)C(=O)CSc2nc(O)c3ccccc3n2)cc1
- IC50 (H9c2): 35.4 µM (inactive)

SMILES: COC(=O)c1cc(-n2cccc2)ccc1N1CCOCC1
- EC50 [7]: > 300 µM (not active)
- EC50 [8]: > 300 µM (not active)

SMILES: O=C(Nc1ccc(F)cc1)N1CCN2C(=O)c3ccccc3C12c1ccccc1 (stereo not drawn)
- EC50 [3]: 1.68 µM (active)

SMILES: OC(C#Cc1ccccn1)c1cccs1 (stereo not drawn)
- EC50 [7]: 27.4 µM (inconclusive)
- EC50 [8]: 33.4 µM (active)

SMILES: CC(=O)Nc1ccc(N2C(C(C)=O)=NN(c3ccc(Cl)cc3)C2c2sccc2C)cc1 (stereo not drawn)
- CC50 [6]: > 40 µM (active)

SMILES: COCCn1c(SCc2cccc([N+](=O)[O-])c2)nc2ccccc2c1=O
- EC50 [3]: 1.68 µM (active)

SMILES: CC(C)=CCN1CCN(Cc2cccc3nonc23)CC1CCO (stereo not drawn)
- EC50 [3]: 2.99 µM (active)

SMILES: Cc1ccc(Cn2c(CCNc3nc(-c4ccc(Cl)c([N+](=O)[O-])c4)cs3)nc3cc(C(=O)NCCCO)ccc32)cc1
- IC50 (H9c2): 47.7 µM (inactive)

SMILES: O=C(CCN1CCc2ccccc2C(O)(c2ccccc2)C1)c1ccc2c(c1)OCCO2 (stereo not drawn)
- EC50 [3]: 8.41 µM (active)
- AC50 [9]: 11.4 µM (active)
- AC50 [10]: 23.1 µM (active)
- AC50 [11]: 63.3 µM (active)

SMILES: Cn1c2ccccc2c(=O)c2ccc(NCc3ccc4c(c3)OCO4)cc21
- IC50 (H9c2): 15.2 µM (active)

SMILES: Cc1ccc(S(=O)(=O)N2[C@@H](c3ccc(Br)cc3)C(C(=O)O)=CC[C@H]2c2cccc(C)c2)cc1
- IC50 [1]: > 47.1 µM (inactive)
- EC50 [2]: > 53 µM (inactive)

SMILES: C[C@@H]1CCCCO[C@@H](CN(C)CC2CC2)[C@@H](C)CN([C@H](C)CO)C(=O)c2cc(N(C)C)ccc2O1
- IC50 [1]: > 47.1 µM (inactive)
- EC50 [2]: > 53 µM (inactive)

SMILES: Cc1cnc(C=O)c2cccc([N+](=O)[O-])c12
- IC50 (H9c2): > 79 µM (inactive)

SMILES: COc1ccc(/C(O)=C/C=N/c2ccc([N+](=O)[O-])cc2C)c(OC)c1
- EC50 [7]: > 300 µM (not active)
- EC50 [8]: > 300 µM (not active)

SMILES: O=C(C1CCC1)N1CCCCN2[C@H](CO)[C@H](c3ccc(-c4cccc(F)c4)cc3)[C@H]2C1
- AC50 (Paired box protein Pax-8): 19.1 µM (active)

SMILES: C[C@H]1CN([C@@H](C)CO)C(=O)c2ccccc2-c2ccccc2CO[C@H]1CN(C)S(=O)(=O)c1ccc(C(F)(F)F)cc1
- AC50 (Paired box protein Pax-8): 9.62 µM (active)

SMILES: CCCNC(=O)C[C@@H]1C[C@H]2c3cc(NC(=O)Cc4ccncc4)ccc3O[C@H]2[C@@H](CO)O1
- AC50 [12]: 55.2 µM (active)

SMILES: N#CC(C#N)=Cc1ccc(N2CCOCC2)cc1
- EC50 [7]: > 300 µM (not active)
- EC50 [8]: > 300 µM (inconclusive)

SMILES: O=C1CCc2ccc(OCCCCN3CCN(c4cccc(Cl)c4Cl)CC3)cc2N1 [ARIPIPRAZOLE]
- CC50 [6]: 29.4 µM (active)
